Laboratory results as given in patent US9618513B2, “Compositions and methods for detecting and treating colorectal cancer” (The Regents of the University of Michigan, priority 2014, dated 2017).

Key:
Type in all cases: cell-based, human
[1] = test system: cyclin-dependent kinase inhibitors, cyclins and CDK4 in DLD-1; test: Cell cycle gene expression by real-time PCR
Excerpt: A. GSEA analysis identifies proliferation pathways have positive correlation with IL-22. B. Cell proliferation maker Ki67 was detected by FACS. C. H^3 Thymidine Incorporation was used to detect the function of IL-22 in cell proliferation. D. Cell number was counted after stimulated with IL-22. E. Cells isolated from colon cancer tissue (Tumor cells and Leukocytes) were stimulated with a-CD3 and […] for 3 days, and supernatant mixed with or without anti-IL-22 antibody was co-cultured with DLD1 cells for 24 h to test cell proliferation. F. Cell cyclin-dependent kinase and kinase inhibitors were analyzed by Real-Time PCR.
The identification of target genes for IL-22 is essential for the determination of the mechanism by which it promotes proliferation in colon cancer cells. As such, the relative mRNA levels in DLD-1 colon cancer cell line was examined by real time quantitative PCR. As expected, IL-22 reduced the expression of the cyclin-dependent kinase inhibitors: p16 (CDKN2A), p18 (CDKN2C), p19 (CDKN2D), p21 (CDKN1A), p27 (CDKN1B), p53 and p57 (CDKN1C).
The mRNAs were quantified by real-time RT-PCR. SYBR Green Master Mix was used to detect fluorescence. Relative expression was calculated according to the Ct value with normalization to GAPDH.

[2] = test system: colon cancer cells; test: Apoptosis by Annexin V FACS
Procedure: FIG. 20A-D A. Realtime PCR was used to detected the mRNA level of p53, p21, CCNE1 after stimulated with IL-22 in primary colon cancer cell lines. B. The effect of IL-22 on colon cancer cell apoptosis was analyzed by Annexin V using FACS. C.D The effect of IL-22 on 5-Fu induced apoptosis was also analyzed by Annexin V.

[3] = test system: NANOG, SOX2, POU5F1 (OCT3/4); test: Stem cell core gene expression (real-time PCR, western blotting); conditions: DLD-1, IL-22 20 ng/ml
Excerpt: (A), IL-22 is expressed in colon cancer tissues. IL-22 mRNA was detected by real-time PCR in colon cancer tissues and peripheral blood. *P<0.05 compared to blood, 20 colon cancer patients. (B-D), Endogenous IL-22 promotes colon carcinogenesis. Single cells (10^7) isolated from colon cancer tissue were mixed with anti-IL-22 antibody or control mAb, and then subcutaneously injected to NSG mice. Tumor growth (B), incidence (C), and animal survival (D) are shown. (P<0.05 for all, n=5 per group). (E-G) Recombinant IL-22 promotes colon carcinogenesis. DLD-1 colon cancer cells (10^5) were pre-incubated with IL-22 (20 ng/ml) for 1 hour, and then subcutaneously injected to NSG mice. […] ALDH activity was determined by FACS based on aldefluor fluorescence. […] Results are expressed as fold changes of ALDH expression. […] The mRNA of stem cell core gene was detected by real-time PCR (K) and proteins were detected by western blotting (L, M). […]
(A, B) IL-22 is expressed by immune cells in colon cancer tissues. Different cell populations were sorted from colon cancer tissues and IL-22 expression was measured by real time PCR. […] IL-22 was detected via ELISA. […] IL-22 was detected with ELISA (D) or intracellular staining (E). […] IL-22 mRNA was detected by real time PCR (F) and protein by ELISA (G). […] IL-22 expression was quantified with real-time PCR in the migrated and non-migrated cells. […]

IL-22: recombinant IL-22 (R&D systems), cytokine interleukin-22
mRNA levels of cyclin A1, D1, D3, E1, E2 and CDK4 ([1]; DLD-1): increased
expression of cyclin-dependent kinase inhibitors p16, p18, p19, p21, p27, p53 and p57 ([1]; DLD-1, mRNA): reduced
cell apoptosis ([2]; IL-22 combined with 5-FU): no change
cell apoptosis ([2]; IL-22 stimulation alone): no change
mRNA levels of stem cell core genes NANOG, SOX2, POU5F1 (OCT3/4) ([3]; real-time PCR): enhanced
protein levels of stem cell core genes NANOG, SOX2, POU5F1 (OCT3/4) ([3]; western blotting): enhanced
